# Legend:
# [1] = system: biofilm of fungal isolates (Paecilomyces lilacinus, Trichoderma spp.) and bacterial isolates (Alcaligenes species, Sphingomonas species); assay: Remediation: 96-well plate mixed biofilm treated with biocides, resazurin readout; type: cell-based; conditions: for Efficacy level (Effective Concentration with 6 ppm of PHMB): with 6 ppm PHMB, biofilm treated 24 hours at 28° C., resazurin; for Result (effect of adjuvant on DBNPA efficacy against biofilm): adjuvant 50 ppm with DBNPA in presence of PHMB
# Procedure: Fungal isolates of common fungi found in swimming pools such as Paecilomyces lilacinus and Trichoderma spp. and bacterial isolates also common to swimming pools such as, i.e. Alcaligenes species and Sphingomonas species were used to construct a biofilm, which was treated with biocides, using the following method: […] An aliquot of the spore suspension was added to each well of a 96-well plate, except column 12. The plates were incubated for 18 hours at 28° C. Also, a mixture of bacterial suspension was prepared at a concentration of 2.34×10^5/ml in 20% […] broth. An aliquot of bacterial suspension was added to each well of the 96-well plate, where fungal spores were placed. The plates were incubated for 24 hours at 28° C. […] An aliquot of the chemical solution was added to each well of column 1 and 2. The solution was mixed in each well of column 2 and an aliquot of solution was transferred from each well of column 2 to each well of column 3. The dilution was repeated to column 11 and the solution from each well of column 11 after dilution was discarded. The culture broth was removed from each well of the incubated plate. An aliquot of 0.8% sodium chloride solution was added to each well, except column 12. The sodium chloride solution was then removed from each well. The prepared chemical solutions were transferred to the corresponding wells of the biofilm plate. The plate was incubated for 24 hours at 28° C. The chemical solution was removed from the plate and an aliquot of resazurin solution was added to each well including column 12. The plate was kept on the lab bench for 24-48 hours. The plate was read at 540 nm and 620 nm. The difference in absorbance between the two wavelengths indicated the performance of the biocides.
# [2] = system: fungi Paecilomyces and Trichoderma; assay: Prevention secondary screen: fungal plate counts; type: cell-based; conditions: Table 4
# [3] = system: bacteria Alcaligenes, Chryseobacterium and Sphingomonas; assay: Prevention secondary screen: bacterial plate counts; type: cell-based; conditions: Table 4
# [4] = system: eight species of bacteria and four species of fungi typically found in swimming pool water; assay: Prevention in test pools: overall mold and bacterial control
# Procedure: The test pools were run in the preventative mode to evaluate the effect of the sanitizers on the build up of bacteria and fungi in the system. The pool pumps were operated for a minimum of 8 hours per day. Each pool was challenged twice per week with eight species of bacteria and four species of fungi typically found in swimming pool water. These microorganisms include species of the fungi Paecilomyces and Trichoderma, and species of the bacteria Alcaligenes, Chryseobacterium and Sphingomonas. Each inoculation represents a total addition of 0.8×106 microorganisms per test pool. Synthetic bather load is added to the system on a weekly basis, as a nutrient source for the microorganisms present in the system. The bather load consists of carbon, nitrogen and macro/micro nutrient sources such as urea, albumin, creatinine, lactic acid, uric acid, glucuronic acid, sodium chloride, sodium sulfate, ammonium chloride, sodium bicarbonate, potassium phosphate potassium sulfate. The total number of viable bacteria and fungi present in each test pool was determined weekly, by conducting agar plate counts. Water samples are removed from each test pool, and using this sample a dilution series (in 10-1 steps, down to a 10-5 of the original sample) is prepared. […]
# [5] = system: Bacteria (Alcaligenes, Chryseobacterium and Sphingomonas); assay: Prevention in test pools: water bacteria counts
# Procedure: (§1) The test pools were run in the preventative mode to evaluate the effect of the sanitizers on the build up of bacteria and fungi in the system. The pool pumps were operated for a minimum of 8 hours per day. Each pool was challenged twice per week with eight species of bacteria and four species of fungi typically found in swimming pool water. These microorganisms include species of the fungi Paecilomyces and Trichoderma, and species of the bacteria Alcaligenes, Chryseobacterium and Sphingomonas. Each inoculation represents a total addition of 0.8×106 microorganisms per test pool. Synthetic bather load is added to the system on a weekly basis, as a nutrient source for the microorganisms present in the system. The bather load consists of carbon, nitrogen and macro/micro nutrient sources such as urea, albumin, creatinine, lactic acid, uric acid, glucuronic acid, sodium chloride, sodium sulfate, ammonium chloride, sodium bicarbonate, potassium phosphate potassium sulfate. The total number of viable bacteria and fungi present in each test pool was determined weekly, by conducting agar plate counts. Water samples are removed from each test pool, and using this sample a dilution series (in 10-1 steps, down to a 10-5 of the original sample) is prepared. Subsequently, an aliquot of each dilution is spread onto dry Cystine Lactose Electrolyte Deficient agar plates (for enumeration of bacteria) and dry Sabaroud-Dextrose agar plates (for enumeration of fungi). […] There were no chemical doses administered on Saturday or Sunday.
# [6] = system: eight species of bacteria and four species of fungi typically found in swimming pool water; assay: Prevention secondary screen: laboratory scale model of a swimming pool, water clarity and hydrogen peroxide loss; type: cell-based; conditions: for Number of Days of Clarity below 1.0 NTU / Number of Days of Clarity below 1.0 NTU with no Peroxide in System: Table 4
# [7] = system: viable bacteria in pool water and sand with established biofilm; assay: Remedial secondary screen: failed model pool, reduction of viable microorganisms in water and sand; type: cell-based; conditions: FIGS. 1 and 2
# Procedure: The secondary screen methodology is based upon a laboratory scale model of a swimming pool. A volume (800 ml) of synthetic swimming pool water (Calcium chloride dihydrate and Sodium hydrogen carbonate solution) is pumped through a body of swimming pool filter sand, by means of a peristaltic pump. The water temperature of each system is maintained in the range of 80-90° F. The systems are allowed to fail resulting in turbid water and heavy bacterial and fungal growth. This is to simulate a swimming pool that has been improperly maintained and has a problem. The purpose of this test is to evaluate the ability of a single biocide or combination of biocides with adjuvants for controlling the organisms present in both the water and the filter sand. Turbidity is not a key measure because the suspended solids are too fine for filtration so they would need to be removed with a separate chemical treatment such as flocculation. To the water, chemicals may be added as required. […] Hydrogen peroxide is added at concentrations of 0-27.5 ppm at the start of the experimentation. The secondary model system is challenged on a daily basis with eight species of bacteria and four species of fungi typically found in swimming pool water. These microorganisms include species of the fungi Paecilomyces and Trichoderma, and species of the bacteria Alcaligenes, Chryseobacterium and Sphingomonas. Each inoculation represents a total addition of 0.8×10^6 microorganisms per model apparatus. A volume (5 ml) of synthetic bather load is added to the system on a daily basis, as a nutrient source for the microorganisms present in the system. The bather load consists of carbon, nitrogen and macro/micro nutrient sources such as urea, albumin, creatinine, lactic acid, uric acid, glucuronic acid, sodium chloride, sodium sulfate, ammonium chloride, sodium bicarbonate, potassium phosphate potassium sulfate. […] The biocidal treatments are added and reduction of viable microorganisms is measured. The biocidal treatments may be added a second time.
# [8] = system: Mold (fungi Paecilomyces and Trichoderma); assay: Prevention in test pools: water mold counts
# Procedure: as §1
# [9] = DBNPA 1 ppm Daily Additions, in the absence of PHMB
# [10] = Pool 2, 1.0 ppm/day DBNPA, Low Baquacil (10-20 ppm)
# [11] = Pool 2, 1.0 ppm/day DBNPA, Recommended Baquacil (30-50 ppm)
# [12] = Pool 6, 0.5 ppm/day DBNPA, Low Baquacil (10-20 ppm)
# [13] = Pool 6, Tablet 0.3 ppm/day DBNPA, Recommended Baquacil (30-50 ppm), with hydrogen peroxide doses
# [14] = Pool 7, 2.0 ppm/day DBNPA, Low Baquacil (10-20 ppm)
# [15] = Pool 7, 2.0 ppm/day DBNPA, Recommended Baquacil (30-50 ppm)
compound,measurement,setting,value
"CCCCCCCCCCCCN [Armeen 12D, Dodecyl amines]",Efficacy level (Effective Concentration with 6 ppm of PHMB),[1],>100 ppm
"N#CC(Br)(Br)C(N)=O [DBNPA, Dibromonitrilopropionamide]",Fungal Counts at Clarity of 1.0 NTU or above,[2]; DBNPA 0.25 ppm Daily Additions,3.0 × 10^2 CFU/ml
same,Fungal Counts at Clarity of 1.0 NTU or above,[2]; DBNPA 0.5 ppm Daily Additions,2.0 × 10^2 CFU/ml
same,Fungal Counts at Clarity of 1.0 NTU or above,[2]; [9],1.2 × 10^3 CFU/ml
same,Bacterial Counts at Clarity of 1.0 NTU or above,[3]; DBNPA 0.25 ppm Daily Additions,3.0 × 10^7 CFU/ml
same,Bacterial Counts at Clarity of 1.0 NTU or above,[3]; DBNPA 0.5 ppm Daily Additions,1.3 × 10^8 CFU/ml
same,Bacterial Counts at Clarity of 1.0 NTU or above,[3]; [9],9.9 × 10^7 CFU/ml
same,average mold and bacterial counts when PHMB was increased to recommended ranges,[4]; all pools treated with DBNPA,significantly reduced
same,improved performance over controls (average mold and bacterial counts),[4]; all pools treated with DBNPA versus control pools,2-4 logs
same,Bacteria % 0 counts,[5]; [10],83.6%
same,Bacteria % Counts >999 cfu/ml,[5]; [10],4.5%
same,Bacteria Avg Counts,[5]; [10],561 cfu/ml
same,Bacteria % 0 counts,[5]; [11],83.3%
same,Bacteria % Counts >999 cfu/ml,[5]; [11],2.4%
same,Bacteria Avg Counts,[5]; [11],74.0 cfu/ml
same,Bacteria % 0 counts,[5]; [12],88%
same,Bacteria % Counts >999 cfu/ml,[5]; [12],1.5%
same,Bacteria Avg Counts,[5]; [12],150 cfu/ml
same,Bacteria % 0 counts,[5]; [13],92.8%
same,Bacteria % Counts >999 cfu/ml,[5]; [13],0.0%
same,Bacteria Avg Counts,[5]; [13],5.0 cfu/ml
same,Bacteria % 0 counts,[5]; [14],89.6%
same,Bacteria % Counts >999 cfu/ml,[5]; [14],0.0%
same,Bacteria Avg Counts,[5]; [14],22.0 cfu/ml
same,Bacteria % 0 counts,[5]; [15],100%
same,Bacteria % Counts >999 cfu/ml,[5]; [15],0.0%
same,Bacteria Avg Counts,[5]; [15],0.0 cfu/ml
same,Number of Days of Clarity below 1.0 NTU,[6]; DBNPA 0.25 ppm Daily Additions,47 days
same,Number of Days of Clarity below 1.0 NTU with no Peroxide in System,[6]; DBNPA 0.25 ppm Daily Additions,0 days
same,Number of Days of Clarity below 1.0 NTU,[6]; DBNPA 0.5 ppm Daily Additions,54 days
same,Number of Days of Clarity below 1.0 NTU with no Peroxide in System,[6]; DBNPA 0.5 ppm Daily Additions,19 days
same,Number of Days of Clarity below 1.0 NTU,[6]; [9],<12 days
same,time to failure of the system (turbid water) versus PHMB alone or PHMB and DBNPA combinations,"[6]; experiment 2, DBNPA added daily at 1 ppm in the absence of PHMB",failure of the system and development of turbid water significantly sooner
same,"performance at preventing turbid water and controlling bacteria and fungi, compared to PHMB alone","[6]; experiment one, DBNPA weekly addition with PHMB",did not perform as well as the PHMB only treatment
same,reduction of viable bacterial and fungal populations (remedial performance),[7]; versus oxidizers and surfactants,significantly better than the oxidizers and surfactants
same,log reduction of viable bacteria in the water,[7]; remedial treatment of failed model system,improved performance over the non-oxidizing surfactants
same,log reduction of viable bacteria in the sand,"[7]; remedial treatment of failed model system, established biofilm",superior
same,Effective concentration of DBNPA in presence of PHMB and Adjuvant,[1]; Adjuvant DSPO 50 ppm,1.6-3.13 ppm
same,Effective concentration of DBNPA in presence of PHMB and Adjuvant,[1]; Adjuvant DTEA 50 ppm,3.13-6.25 ppm
same,Effective concentration of DBNPA in presence of PHMB and Adjuvant,[1]; Adjuvant Envirosweet 50 ppm,6.25-12.5 ppm
same,Effective concentration of DBNPA in presence of PHMB and Adjuvant,[1]; Adjuvant Geogard 111A 50 ppm,6.25-12.5 ppm
same,Effective concentration of DBNPA in presence of PHMB and Adjuvant,[1]; Adjuvant None,3.13-6.25 ppm
same,Effective concentration of DBNPA in presence of PHMB and Adjuvant,[1]; Adjuvant SADA 50 ppm,1.5-3.13 ppm
same,Effective concentration of DBNPA in presence of PHMB and Adjuvant,[1]; Adjuvant Span 60 50 ppm,3.13-6.25 ppm
same,Effective concentration of DBNPA in presence of PHMB and Adjuvant,[1]; Adjuvant Sulfamic acid 50 ppm,0.8-1.6 ppm
same,Effective concentration of DBNPA in presence of PHMB and Adjuvant,[1]; Adjuvant Surfonic L24-22 50 ppm,3.13-6.25 ppm
same,Effective concentration of DBNPA in presence of PHMB and Adjuvant,[1]; Adjuvant Triton BG10 50 ppm,3.13-6.25 ppm
same,Effective concentration of DBNPA in presence of PHMB and Adjuvant,[1]; Adjuvant Worm 50 ppm,1.6-3.13 ppm
same,Mold % 0 counts,[8]; [10],59.7%
same,Mold % Counts >999 cfu/ml,[8]; [10],3.0%
same,Mold Avg Counts,[8]; [10],4267 cfu/ml
same,Mold % 0 counts,[8]; [11],69.0%
same,Mold % Counts >999 cfu/ml,[8]; [11],0.0%
same,Mold Avg Counts,[8]; [11],9.0 cfu/ml
same,mold control compared to the other DBNPA pools,[8]; Pool 2 at low PHMB (1.0 ppm/day DBNPA),had difficulty controlling mold
same,Mold % 0 counts,[8]; [12],76.1%
same,Mold % Counts >999 cfu/ml,[8]; [12],0.0%
same,Mold Avg Counts,[8]; [12],19.0 cfu/ml
same,Mold % 0 counts,[8]; [13],66.7%
same,Mold % Counts >999 cfu/ml,[8]; [13],0.0%
same,Mold Avg Counts,[8]; [13],8.0 cfu/ml
same,Mold % 0 counts,[8]; [14],74.6%
same,Mold % Counts >999 cfu/ml,[8]; [14],1.5%
same,Mold Avg Counts,[8]; [14],620 cfu/ml
same,Mold % 0 counts,[8]; [15],83.3%
same,Mold % Counts >999 cfu/ml,[8]; [15],0.0%
same,Mold Avg Counts,[8]; [15],4.0 cfu/ml
"O=C1c2ccccc2C(=O)c2ccccc21 [Envirosweet, 9,10 anthraquinone]",Result (effect of adjuvant on DBNPA efficacy against biofilm),[1],Negative impact
"CC(=O)C1C(=O)C=C(C)OC1=O (stereo not drawn) [Geogard 111A, Dehydroxyacetic acid (dehydroacetic acid)]",Result (effect of adjuvant on DBNPA efficacy against biofilm),[1],Negative impact
"CCCCCCCCCCCCCC(=O)O [Myristian, Mystic acid]",Efficacy level (Effective Concentration with 6 ppm of PHMB),[1],>100 ppm
NS(=O)(=O)O [Sulfamic acid],Result (effect of adjuvant on DBNPA efficacy against biofilm),[1],most significant effect on lowering the concentration of DBNPA
Fatty alcohol polyglycol ether [Genapol C 050],Efficacy level (Effective Concentration with 6 ppm of PHMB),[1],>100 ppm
"N-Alkyl (C12-16)-N,N-dimethyl-N-benzylammonium chloride [Uniquat QAC-50]",Efficacy level (Effective Concentration with 6 ppm of PHMB),[1],>100 ppm
POE (2) stearyl ether [Brij ® 72],Efficacy level (Effective Concentration with 6 ppm of PHMB),[1],>100 ppm
Sorbitan monooleate [Alkamuls BR],Efficacy level (Effective Concentration with 6 ppm of PHMB),[1],>100 ppm

# — US20120207861A1, “BIOCIDAL COMPOSITION AND METHOD FOR TREATING RECIRCULATING WATER SYSTEMS” (priority 2006, published 2012)
